Series [1] deals with T1, Solute carrier family 22 member 1 (Rattus norvegicus, UniProt Q63089).
T1 sequence (Q63089 whole entry): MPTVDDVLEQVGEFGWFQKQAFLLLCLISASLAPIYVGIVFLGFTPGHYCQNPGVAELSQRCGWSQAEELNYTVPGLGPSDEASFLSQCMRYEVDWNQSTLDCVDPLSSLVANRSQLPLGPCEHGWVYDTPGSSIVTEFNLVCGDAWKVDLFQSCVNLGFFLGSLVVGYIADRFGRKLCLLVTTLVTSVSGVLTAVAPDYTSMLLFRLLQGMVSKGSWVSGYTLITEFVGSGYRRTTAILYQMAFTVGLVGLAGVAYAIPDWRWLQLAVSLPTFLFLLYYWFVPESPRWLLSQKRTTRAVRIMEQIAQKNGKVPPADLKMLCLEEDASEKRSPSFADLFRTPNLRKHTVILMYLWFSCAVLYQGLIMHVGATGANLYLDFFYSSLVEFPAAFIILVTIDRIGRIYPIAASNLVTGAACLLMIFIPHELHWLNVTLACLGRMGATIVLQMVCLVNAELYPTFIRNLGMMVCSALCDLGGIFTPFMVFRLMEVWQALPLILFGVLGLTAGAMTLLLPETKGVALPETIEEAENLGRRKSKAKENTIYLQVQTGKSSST
Briefly: TP_TRANSPORTER: inhibition of TEA uptake in Xenopus laevis oocytes. The series is classed as functional, cell-based, Oocyte.

Series [2] addresses T1, Solute carrier family 22 member 1. Briefly: (§1) TP_TRANSPORTER: uptake in Xenopus laevis oocytes. To be noted: oocyte. Type of series: functional, cell-based.
Series [3] concerns the target T2, Solute carrier family 22 member 2 (Rattus norvegicus, UniProt Q9R0W2).
T2 sequence (Q9R0W2 whole entry): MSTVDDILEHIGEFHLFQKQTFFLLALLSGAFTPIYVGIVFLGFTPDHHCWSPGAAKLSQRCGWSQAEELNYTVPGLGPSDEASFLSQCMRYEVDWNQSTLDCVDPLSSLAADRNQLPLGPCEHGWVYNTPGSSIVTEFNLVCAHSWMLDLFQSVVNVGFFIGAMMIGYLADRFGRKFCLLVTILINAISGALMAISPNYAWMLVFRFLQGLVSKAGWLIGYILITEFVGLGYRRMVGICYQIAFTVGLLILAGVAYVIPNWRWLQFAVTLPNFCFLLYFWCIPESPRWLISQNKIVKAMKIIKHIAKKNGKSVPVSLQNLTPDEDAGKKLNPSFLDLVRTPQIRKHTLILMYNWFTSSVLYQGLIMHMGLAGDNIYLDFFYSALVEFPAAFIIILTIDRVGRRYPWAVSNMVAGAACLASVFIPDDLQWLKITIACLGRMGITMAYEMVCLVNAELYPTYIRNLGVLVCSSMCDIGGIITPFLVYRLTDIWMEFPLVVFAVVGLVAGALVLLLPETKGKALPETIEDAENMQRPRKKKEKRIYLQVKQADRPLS
The series is described as §1. The series is classed as functional, cell-based. As to conditions: oocyte.

Series [4] has as its target T1, Solute carrier family 22 member 1. Briefly: TP_TRANSPORTER: inhibition of dTub uptake in Xenopus laevis oocytes.
Substrate in series [5]: CC[N+](CC)(CC)CC
Briefly: cells, lysate or membranes named.

Take `Nc1ncnc2c1ccn2[C@H]1C[C@H](O)[C@@H](CO)O1` [2'-Deoxytubercidin]: affinity in series [1] was put at a Ki of 19 µM.
As for `Nc1nc(Cl)nc2c1ncn2[C@H]1C[C@H](O)[C@@H](CO)O1` [CLADRIBINE], the Activity entry in series [2] was “substrate [+]”; in series [3] it was “is not a substrate [-]”.
Taken in the same sequence, the figures for `Nc1ccn([C@@H]2O[C@H](CO)[C@@H](O)[C@@H]2O)c(=O)n1` [CYTARABINE] were “substrate [+]” and “is not a substrate [-]”.
Consider `CC[N+](CC)(CC)CC` [TETRYLAMMONIUM], for which, in series [4], affinity was put at a Ki of 286 µM.
For the molecule `Cc1cn([C@H]2C[C@H](N=[N+]=[N-])[C@@H](CO)O2)c(=O)[nH]c1=O` [ZIDOVUDINE], the Activity entry in series [2] was “substrate [+]”; in series [3], “is not a substrate [-]”.

B1: Solute carrier family 22 member 1 (Rattus norvegicus) (protein)
chain: MPTVDDVLEQVGEFGWFQKQAFLLLCLISASLAPIYVGIVFLGFTPGHYCQNPGVAELSQRCGWSQAEELNYTVPGLGPSDEASFLSQCMRYEVDWNQSTLDCVDPLSSLVANRSQLPLGPCEHGWVYDTPGSSIVTEFNLVCGDAWKVDLFQSCVNLGFFLGSLVVGYIADRFGRKLCLLVTTLVTSVSGVLTAVAPDYTSMLLFRLLQGMVSKGSWVSGYTLITEFVGSGYRRTTAILYQMAFTVGLVGLAGVAYAIPDWRWLQLAVSLPTFLFLLYYWFVPESPRWLLSQKRTTRAVRIMEQIAQKNGKVPPADLKMLCLEEDASEKRSPSFADLFRTPNLRKHTVILMYLWFSCAVLYQGLIMHVGATGANLYLDFFYSSLVEFPAAFIILVTIDRIGRIYPIAASNLVTGAACLLMIFIPHELHWLNVTLACLGRMGATIVLQMVCLVNAELYPTFIRNLGMMVCSALCDLGGIFTPFMVFRLMEVWQALPLILFGVLGLTAGAMTLLLPETKGVALPETIEEAENLGRRKSKAKENTIYLQVQTGKSSST
As for B1, in series [5], the Km (in general, the substrate concentration at which the rate is half of its maximum) came to 251 µM.

Source of the values: ChEMBL document CHEMBL2074159, “Role of organic cation transporters in the renal secretion of nucleosides” (Biochem Pharmacol, 2000).
